Test results reported in PMC8044046 (European journal of medicinal chemistry, 2021).

Tests used:
Test in all cases: CellTiter Glo cell viability
Format in all cases: cell-based
[1] = system: BT-474 (HER2+) breast cancer cell line; conditions: read-out: IC50 (μM) BT-474 (HER2+); antiproliferative activity, 72 h, N=3, ±S.E
MCF-7 (HER2−) cell line = conditions: read-out: IC50 (μM) MCF-7 (HER2−); antiproliferative activity, 72 h, N=3
[2] = system: Calu-3 (HER2+) lung cancer cell line; conditions: read-out: IC50 (μM) Calu-3 (HER2+); antiproliferative activity, 72 h, N=3, ±S.E
[3] = system: A549 (HER2+) NSCLC cell line; conditions: read-out: IC50 (μM) A549 (HER2+); antiproliferative activity, 72 h, N=3, ±S.E

Measured: IC50

H2N-K(S-(3-amino-3(biphenyl)propionic acid)F-OH [Control]
> 100 µM: all assays above
